In patent publication US20190185479A1, “BICYCLIC NITROGENATED HETEROCYCLIC COMPOUND” (MITSUBISHI TANABE PHARMA CORPORATION, priority 2016, published 2019):

Assays:
Assay type in all cases: biochemical
hPDE8B = biological target: T1, hPDE8B (Homo sapiens, UniProt O95263); test: PDE8 inhibition assay (IC50), Experimental Example 3; details: for IC50: hPDE8B, read-out: PDE inhibition assay IC50, PDE8; for inhibition at 0.1 µM: at 0.1 μmol/L
T1 construct: purchased SB Drug Discovery
Experimental: (§1) PDE7 inhibitory assay was carried out by reacting the mixture of a compound, hPDE7B, and cAMP, and measuring the residual cAMP by a detection method using LANCE (registered trademark) Ultra cAMP Detection Kit (ParkinElmer). The compound was dissolved in DMSO, and diluted so that the concentration would become 50 times of the final concentration. The hPDE7B and cAMP were diluted with an assay buffer (50 mmol/L Tris-HCl, 1 mmol/L MgCl2, 0.1% BSA, 0.5 mmol/L DTT, pH7.5) so that the hPDE7B would have an appropriate enzyme activity and the concentration of cAMP would become 6 nmol/L. To a 96 well plate were added the compound (2 μL) (DMSO final concentration: 2%), hPDE7B (48 μL), and cAMP (50 μL) (concentration at the reaction: 3 nmol/L), and the resulting mixture was reacted at room temperature for 60 minutes. The reaction solution (20 μL) was subjected to a TR-FRET method according to the protocol specified by the kit to measure the concentration of the residual cAMP. In the assay, to a tracer solution specified by the kit was added 0.5 mmol/L of 3-isobutyl-1-methylxanthine (IBMX, nonselective PDE inhibitor) in order to stop the PDE enzyme reaction after the completion of reaction until the measurement.
(§2) The prediction of PDE7 selectivity was evaluated by comparing each IC50 value of a compound against PDE4, 8, and 10 with the IC50 value of said compound against PDE7B.
(§3) hPDE4D, hPDE8B, and hPDE10A were prepared by the same method as [Method for preparing samples 2].
(§4) PDE4, 8, and 10 inhibitory assays were carried out by the same method as [Assay procedure 1].
(§5) The reaction without a compound wad defined as “0% inhibition”, the reaction without each PDE was defined as “100% inhibition”, and the calculation of IC50 value was carried out by the same method as <Method for data calculation 1>.

hPDE4D = biological target: T2, hPDE4D (Homo sapiens, UniProt Q08499); test: PDE4 inhibition assay (IC50), Experimental Example 3; details: for IC50: hPDE4D, read-out: PDE inhibition assay IC50, PDE4; for inhibition at 10 µM: at 10 μmol/L
T2 construct: purchased SB Drug Discovery
Experimental: as §1, §2, §3, §4, §5

Human PDE7B (hPDE7B) = biological target: T3, Human PDE7B (hPDE7B) (Homo sapiens, UniProt Q9NP56); test: Measurement of PDE7 inhibitory activity (Experimental Example 1; residual cAMP, LANCE Ultra cAMP TR-FRET); details: cAMP 3 nmol/L, room temperature 60 minutes
T3 construct: made in house; host or cells: COS-7 cells
Outline: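 hPDE7B from transfected COS-7 cells reacted with 3 nmol/L cAMP (final) and compound (2% DMSO) in 50 mmol/L Tris-HCl pH 7.5, 1 mmol/L MgCl2, 0.1% BSA, 0.5 mmol/L DTT, 60 min at room temperature. Reaction stopped with IBMX; residual cAMP measured by TR-FRET. Inhibition scaled between no-compound and no-enzyme controls.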

hPDE10A = hPDE10A (Homo sapiens, UniProt Q9Y233); test: PDE10 inhibition assay (IC50), Experimental Example 3; details: for inhibition at 10 µM: at 10 μmol/L, read-out: inhibition rate (%) at prescribed concentration, PDE10; for IC50: hPDE10A, read-out: PDE inhibition assay IC50, PDE10
Experimental: as §1, §2, §3, §4, §5

[1] = at 1 μmol/L, read-out: inhibition rate (%) at prescribed concentration, PDE4
[2] = read-out: inhibition rate (%) at prescribed concentration, PDE8
[3] = read-out: inhibition rate (%) at prescribed concentration, PDE4
[4] = at 1 μmol/L, read-out: inhibition rate (%) at prescribed concentration, PDE8

T3 sequence (Q9NP56 whole entry): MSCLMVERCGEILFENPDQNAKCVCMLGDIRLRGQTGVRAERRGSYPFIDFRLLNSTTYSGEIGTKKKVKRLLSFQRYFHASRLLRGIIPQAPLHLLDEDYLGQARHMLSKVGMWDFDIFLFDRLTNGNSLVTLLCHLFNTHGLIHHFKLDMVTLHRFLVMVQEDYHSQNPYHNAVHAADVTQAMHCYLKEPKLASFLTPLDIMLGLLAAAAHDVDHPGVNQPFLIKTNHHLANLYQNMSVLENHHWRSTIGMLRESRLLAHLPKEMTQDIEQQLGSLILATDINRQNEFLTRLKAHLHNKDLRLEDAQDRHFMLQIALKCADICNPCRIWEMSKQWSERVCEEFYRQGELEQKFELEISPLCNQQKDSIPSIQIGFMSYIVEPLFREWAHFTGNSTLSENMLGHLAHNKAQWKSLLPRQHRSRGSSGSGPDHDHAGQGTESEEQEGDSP
hPDE10A, sequence (Q9Y233 290-1055 limits assumed): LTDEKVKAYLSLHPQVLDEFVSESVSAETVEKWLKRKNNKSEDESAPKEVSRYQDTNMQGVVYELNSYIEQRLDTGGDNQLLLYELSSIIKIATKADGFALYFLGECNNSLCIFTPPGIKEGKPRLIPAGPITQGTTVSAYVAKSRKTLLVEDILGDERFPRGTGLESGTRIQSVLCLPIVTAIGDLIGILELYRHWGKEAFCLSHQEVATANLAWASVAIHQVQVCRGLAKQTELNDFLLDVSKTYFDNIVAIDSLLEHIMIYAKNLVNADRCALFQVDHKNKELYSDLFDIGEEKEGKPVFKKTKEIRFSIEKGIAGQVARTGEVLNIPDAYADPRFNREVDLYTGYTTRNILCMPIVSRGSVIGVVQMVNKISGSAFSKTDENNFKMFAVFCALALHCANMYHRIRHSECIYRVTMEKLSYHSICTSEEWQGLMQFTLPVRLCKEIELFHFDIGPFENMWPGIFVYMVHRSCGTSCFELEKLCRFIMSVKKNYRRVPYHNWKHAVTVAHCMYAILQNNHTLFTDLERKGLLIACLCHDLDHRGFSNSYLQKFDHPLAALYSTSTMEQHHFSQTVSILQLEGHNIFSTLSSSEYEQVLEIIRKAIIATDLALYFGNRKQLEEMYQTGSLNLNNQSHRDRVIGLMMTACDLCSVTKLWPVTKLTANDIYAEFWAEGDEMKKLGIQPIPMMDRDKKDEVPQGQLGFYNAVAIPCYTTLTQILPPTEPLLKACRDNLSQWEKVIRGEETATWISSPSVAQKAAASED
T1 sequence (O95263 whole entry): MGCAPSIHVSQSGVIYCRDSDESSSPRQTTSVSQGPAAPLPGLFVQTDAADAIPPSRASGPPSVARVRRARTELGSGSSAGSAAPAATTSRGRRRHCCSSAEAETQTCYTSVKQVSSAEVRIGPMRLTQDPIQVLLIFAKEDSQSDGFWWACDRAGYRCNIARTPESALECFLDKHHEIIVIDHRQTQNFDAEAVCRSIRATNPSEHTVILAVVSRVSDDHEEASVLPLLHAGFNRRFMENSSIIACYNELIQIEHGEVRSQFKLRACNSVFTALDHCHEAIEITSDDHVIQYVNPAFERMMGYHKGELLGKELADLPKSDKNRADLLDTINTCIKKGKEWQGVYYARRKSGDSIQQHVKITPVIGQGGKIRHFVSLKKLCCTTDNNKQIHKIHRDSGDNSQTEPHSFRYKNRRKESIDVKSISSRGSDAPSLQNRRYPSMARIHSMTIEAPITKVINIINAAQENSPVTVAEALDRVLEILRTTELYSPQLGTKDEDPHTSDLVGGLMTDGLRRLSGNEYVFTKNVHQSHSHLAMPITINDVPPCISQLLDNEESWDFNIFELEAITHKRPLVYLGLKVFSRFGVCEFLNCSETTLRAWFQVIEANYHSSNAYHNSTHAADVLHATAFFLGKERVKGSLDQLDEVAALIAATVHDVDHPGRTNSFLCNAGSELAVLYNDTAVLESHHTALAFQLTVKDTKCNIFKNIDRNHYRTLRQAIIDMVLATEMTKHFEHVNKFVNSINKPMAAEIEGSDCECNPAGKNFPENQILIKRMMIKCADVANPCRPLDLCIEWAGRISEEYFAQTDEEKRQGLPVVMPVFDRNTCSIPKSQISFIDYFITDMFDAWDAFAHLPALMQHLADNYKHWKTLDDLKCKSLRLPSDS
T2 sequence (Q08499 whole entry): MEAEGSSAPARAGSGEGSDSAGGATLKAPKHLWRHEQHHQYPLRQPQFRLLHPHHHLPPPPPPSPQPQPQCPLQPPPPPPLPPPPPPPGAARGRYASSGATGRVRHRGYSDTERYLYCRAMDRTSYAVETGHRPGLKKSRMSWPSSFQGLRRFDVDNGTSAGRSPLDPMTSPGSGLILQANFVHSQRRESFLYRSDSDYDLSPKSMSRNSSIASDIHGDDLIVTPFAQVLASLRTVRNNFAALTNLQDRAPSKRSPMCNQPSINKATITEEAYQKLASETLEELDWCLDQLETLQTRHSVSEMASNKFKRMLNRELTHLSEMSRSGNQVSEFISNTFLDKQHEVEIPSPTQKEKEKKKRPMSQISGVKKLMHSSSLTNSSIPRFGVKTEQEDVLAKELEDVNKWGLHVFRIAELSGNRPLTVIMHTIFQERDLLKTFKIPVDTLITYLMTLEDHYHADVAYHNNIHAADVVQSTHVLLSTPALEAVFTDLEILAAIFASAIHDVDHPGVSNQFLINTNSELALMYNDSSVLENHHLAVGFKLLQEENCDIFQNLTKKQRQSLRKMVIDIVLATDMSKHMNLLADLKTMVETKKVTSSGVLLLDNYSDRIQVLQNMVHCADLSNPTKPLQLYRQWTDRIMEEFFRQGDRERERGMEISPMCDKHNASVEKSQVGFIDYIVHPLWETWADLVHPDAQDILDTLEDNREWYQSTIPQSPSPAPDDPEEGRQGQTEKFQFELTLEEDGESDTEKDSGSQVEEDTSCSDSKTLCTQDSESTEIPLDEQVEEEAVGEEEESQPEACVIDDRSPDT

| IC50 (hPDE8B) [µM] | IC50 (hPDE4D) [µM] | IC50 (Human PDE7B (hPDE7B)) [µM] | IC50 (hPDE10A) [µM] | Compound | other results |
| --- | --- | --- | --- | --- | --- |
| 0.12 | 1.6 | 0.02 |  | C[C@H]1CC[C@@H](n2nnc3c(N)ncnc32)CC1 [Example 99, 3-(cis-4-methylcyclohexyl)-3H-[1,2,3]triazolo[4,5-d]pyrimidin-7-amine] | inhibition at 10 µM (hPDE10A): 38% |
| 21.9 | 35.1 | 0.07 | 18.6 | CC1CCC(F)(F)CC1c1nnc2c(N)nccn12 (stereo not drawn) [Example 153] |  |
| 5.51 | 7.85 | 0.08 | 24.1 | Nc1nccn2c(N3CCCC4(CC4)C3)nnc12 [Example 44] |  |
| 1.33 |  | < 0.01 | 3.04 | CC1CCC(C(F)(F)F)CC1c1nnc2c(N)ncnn12 (racemic) [Example 83, 3-[2-methyl-5-(trifluoromethyl)cyclohexyl][1,2,4]triazolo[3,4-f][1,2,4]triazin-8-amine] | inhibition at 1 µM (hPDE4D; [1]): 53% |
| 0.99 | 0.54 | 0.03 | 16.6 | Nc1ncnc2c1nnn2C1CCCC(C(F)F)C1 (single isomer, unassigned) [Example 200] |  |
| 7.66 | 4.59 | 0.02 | 21.1 | CC1(C)CCCN(c2nnc3c(N)nccn23)C1 [Example 26, 3-(3,3-dimethylpiperidin-1-yl) [1,2,4]triazolo[4,3-a]pyrazin-8-amine] |  |
| 1.5 | 10.5 | < 0.01 | 10.2 | CC1(C)CCCC(c2nnc3c(N)nccn23)C1 (single isomer, unassigned) [Example 207, 3-(3,3-dimethylcyclohexyl) [1,2,4]triazolo[4,3-a]pyrazin-8-amine] |  |
|  | 0.64 | 0.02 | 5.84 | CC1(C)CCC(n2nnc3c(N)ncnc32)CC1 [Example 101, 3-(4,4-dimethylcyclohexyl)-3H-[1,2,3]triazolo[4,5-d]pyrimidin-7-amine] | inhibition at 0.1 µM (hPDE8B; [2]): 69% |
| 1.6 | 6.3 | 0.07 | 12.9 | CC1CCCN(c2nnc3c(N)nccn23)C1 (stereo not drawn) [Example 24] |  |
| 10.6 | 3.24 | 0.08 | 6.42 | CCC1CCCCN1c1nnc2c(N)nccn12 (single isomer, unassigned) [Example 222, 3-(2-ethylpiperidin-1-yl) [1,2,4]triazolo[4,3-a]pyrazin-8-amine] |  |
|  |  | 0.025 | 1.8 | CC1CCCCC1c1nnc2c(N)ncnn12 (single isomer, unassigned) [Example 70, 3-(cis-2-methylcyclohexyl) [1,2,4]triazolo[3,4-f][1,2,4]triazin-8-amine] | inhibition rate (%) at prescribed concentration, PDE8 (hPDE8B; at 1 μmol/L): 64% at 1; inhibition rate (%) at prescribed concentration, PDE4 (hPDE4D; at 1 μmol/L): 67% at 1 |
| 1.66 | 2.2 | 0.04 |  | C[C@H]1CC[C@H](c2nnc3c(N)nccn32)CC1 [Example 149, 3-(trans-4-methylcyclohexyl) [1,2,4]triazolo[4,3-a]pyrazin-8-amine] | inhibition at 10 µM (hPDE10A): 46% |
| 1.2 | 2.1 | 0.05 | 4.7 | Nc1nccn2c(C3CCC4CC4C3)nnc12 (single isomer, unassigned) [Example 219, 3-(bicyclo[4.1.0]hept-3-yl) [1,2,4]triazolo[4,3-a]pyrazin-8-amine] |  |
| 2.95 |  | 0.07 | 7.2 | Cc1cnc(N)c2nnc(C3CCCCC3)n12 [Example 171, 3-cyclohexyl-5-methyl[1,2,4]triazolo[4,3-a]pyrazin-8-amine] | inhibition at 10 µM (hPDE4D; [3]): 48% |
|  |  | < 0.01 | 1.9 | CC1CCCCC1c1nnc2c(N)ncnn12 (single isomer, unassigned) [Example 238, 3-(cis-2-methylcyclohexyl) [1,2,4]triazolo[3,4-f][1,2,4]triazin-8-amine] | inhibition at 1 µM (hPDE8B; [4]): 51%; inhibition at 1 µM (hPDE4D; [1]): 63% |
| 3.7 | 4.3 | 0.09 | 28.4 | CC1CCN(c2nnc3c(N)nccn23)CC1 [Example 28] |  |
| 7.33 |  | 0.21 |  | Nc1ncnc2c(C3CCCCC3)noc12 [Example 188, 3-cyclohexylisoxazolo[4,5-d]pyrimidin-7-amine] | inhibition at 10 µM (hPDE4D; [3]): 38%; inhibition at 10 µM (hPDE10A): 50% |
|  | 3.41 | 0.08 | 34.9 | Nc1nccn2c([C@@H]3C[C@@H]4[C@H](C3)C4(F)F)nnc12 [Example 160] | inhibition at 1 µM (hPDE8B; [4]): 54% |
| 13.7 | 21 | 0.035 | 13.3 | CC1(C)CC(c2nnc3c(N)nccn23)CC(F)(F)C1 (single isomer, unassigned) [Example 177, 3-(3,3-difluoro-5,5-dimethylcyclohexyl) [1,2,4]triazolo[4,3-a]pyrazin-8-amine] |  |
| 4.6 | 1.4 | 0.003 | 0.35 | CC1CCC(C)N(c2nnc3c(N)nccn23)C1 (single isomer, unassigned) [Example 232, 3-(2,5-dimethylpiperidin-1-yl) [1,2,4]triazolo[4,3-a]pyrazin-8-amine] |  |
|  |  | 0.54 | 0.5 | Cc1nn(C2CCCCC2)c2ncnc(N)c12 [Example 184] | inhibition at 10 µM (hPDE8B; at 10 μmol/L, read-out: inhibition rate (%) at prescribed concentration, PDE8): 18%; inhibition at 10 µM (hPDE4D; [3]): 48% |
|  | 3.7 | 0.12 | 19 | Nc1ncnc2c1nnn2[C@@H]1CCCOC1 [Example 90] | inhibition at 1 µM (hPDE8B; [4]): 59% |
| 1.7 | 3 | < 0.01 | 5.2 | CCc1cnc(N)c2nnc(N3CCCC(C)(C)C3)n12 [Example 42, 3-(3,3-dimethylpiperidin-1-yl)-5-ethyl[1,2,4]triazolo[4,3-a]pyrazin-8-amine] |  |
| 1.16 | 5.31 | 0.014 |  | Nc1ncnc2c1nnn2C1CCCC(C(F)(F)F)C1 (single isomer, unassigned) [Example 202, 3-[cis-3-(trifluoromethyl)cyclohexyl]-3H-[1,2,3]triazolo[4,5-d]pyrimidin-7-amine] | inhibition at 10 µM (hPDE10A): 27% |
|  |  | 0.06 | 3.7 | CC(C)(C)OC(=O)N1CCC[C@H](c2nnc3c(N)nccn23)C1 [Example 167] | inhibition at 0.1 µM (hPDE8B; [2]): 98%; inhibition at 0.1 µM (hPDE4D; at 0.1 μmol/L, read-out: inhibition rate (%) at prescribed concentration, PDE4): 66% |
| 21.3 | 4.3 | 0.04 | 7.1 | CC1CCN(c2nnc3c(N)nccn23)C(C)C1 (racemic) [Example 62, 3-(2,4-dimethylpiperidin-1-yl) [1,2,4]triazolo[4,3-a]pyrazin-8-amine] |  |
| 9.9 | 6.4 | 0.05 | 8.7 | CC1CCCN(c2nnc3c(N)nccn23)C1C (single isomer, unassigned) [Example 57, 3-(2,3-dimethylpiperidin-1-yl) [1,2,4]triazolo[4,3-a]pyrazin-8-amine] |  |
| 6.07 | 15.9 | 0.04 | 15.6 | Nc1nccn2c([C@H]3CCCC(F)(F)C3)nnc12 [Example 212, 3-[(1S)-3,3-difluorocyclohexyl][1,2,4]triazolo[4,3-a]pyrazin-8-amine] |  |
| 2.9 | 4 | 0.08 | 19.6 | CC1CCN(c2nnc3c(N)nccn23)CC1C (single isomer, unassigned) [Example 230, 3-(3,4-dimethylpiperidin-1-yl) [1,2,4]triazolo[4,3-a]pyrazin-8-amine] |  |
| 0.5 | 4.13 | 0.02 |  | Nc1ncnn2c(C3CCCCC3)nnc12 [Example 68, 3-cyclohexyl[1,2,4]triazolo[3,4-f][1,2,4]triazin-8-amine] | inhibition at 10 µM (hPDE10A): 34% |
